Laboratory results published in US12655106B2 (Eikonizo Therapeutics, Inc., priority 2021, dated 2026).

Key:
Full length Human HDAC6 = biological target: T1, Full length Human HDAC6 (Homo sapiens, UniProt Q9UBN7); experiment: Caliper endpoint assay for HDAC enzymatic activity (HDAC6); format: biochemical; details: for IC50: in vitro enzymatic, Caliper endpoint assay, 30 min pre-incubation, 1 μM substrate peptide; for Selectivity (6 v 8): ratio of HDAC8 IC50/HDAC6 IC50
T1 construct: Full length Human HDAC6; FLAG (C); host or cells: baculovirus expression system
T1 sequence (Q9UBN7 1-1215): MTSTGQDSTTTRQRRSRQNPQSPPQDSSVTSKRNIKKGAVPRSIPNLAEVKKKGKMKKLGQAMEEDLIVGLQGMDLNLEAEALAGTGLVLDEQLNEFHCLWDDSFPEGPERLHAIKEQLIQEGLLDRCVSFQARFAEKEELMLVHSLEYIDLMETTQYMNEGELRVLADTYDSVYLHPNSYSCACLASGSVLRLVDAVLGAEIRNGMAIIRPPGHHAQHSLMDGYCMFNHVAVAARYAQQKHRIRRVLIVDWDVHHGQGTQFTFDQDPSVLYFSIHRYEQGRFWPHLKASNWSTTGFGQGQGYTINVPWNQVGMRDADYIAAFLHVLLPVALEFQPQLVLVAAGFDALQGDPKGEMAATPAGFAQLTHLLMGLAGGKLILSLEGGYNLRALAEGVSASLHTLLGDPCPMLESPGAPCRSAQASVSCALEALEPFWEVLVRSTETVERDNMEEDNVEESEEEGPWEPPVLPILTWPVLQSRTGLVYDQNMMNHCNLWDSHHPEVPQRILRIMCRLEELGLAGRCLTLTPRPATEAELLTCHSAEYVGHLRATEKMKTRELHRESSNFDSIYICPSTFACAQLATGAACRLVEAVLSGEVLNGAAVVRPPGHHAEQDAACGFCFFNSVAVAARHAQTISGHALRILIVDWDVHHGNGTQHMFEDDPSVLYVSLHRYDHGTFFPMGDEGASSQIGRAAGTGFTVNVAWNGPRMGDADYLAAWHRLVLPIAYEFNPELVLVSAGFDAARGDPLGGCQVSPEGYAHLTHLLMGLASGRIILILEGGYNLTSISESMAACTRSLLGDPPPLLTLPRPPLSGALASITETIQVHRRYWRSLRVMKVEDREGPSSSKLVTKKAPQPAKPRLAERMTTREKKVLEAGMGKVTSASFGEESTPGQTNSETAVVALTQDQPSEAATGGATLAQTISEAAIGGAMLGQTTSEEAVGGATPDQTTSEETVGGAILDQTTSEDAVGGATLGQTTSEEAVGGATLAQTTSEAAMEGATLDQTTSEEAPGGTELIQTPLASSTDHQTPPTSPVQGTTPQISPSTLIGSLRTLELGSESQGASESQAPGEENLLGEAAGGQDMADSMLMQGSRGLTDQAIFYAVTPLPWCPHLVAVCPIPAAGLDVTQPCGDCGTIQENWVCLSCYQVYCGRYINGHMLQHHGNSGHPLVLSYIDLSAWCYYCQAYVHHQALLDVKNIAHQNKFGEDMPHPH

Full length Human HDAC8 = biological target: T2, Full length Human HDAC8 (Homo sapiens, UniProt Q9BY41); experiment: Caliper endpoint assay for HDAC enzymatic activity (HDAC8); format: biochemical; details: in vitro enzymatic, 30 min pre-incubation, 1 μM substrate peptide
T2 construct: Full length Human HDAC8; HIS (N); host or cells: baculovirus expression system
T2 sequence (Q9BY41 1-377): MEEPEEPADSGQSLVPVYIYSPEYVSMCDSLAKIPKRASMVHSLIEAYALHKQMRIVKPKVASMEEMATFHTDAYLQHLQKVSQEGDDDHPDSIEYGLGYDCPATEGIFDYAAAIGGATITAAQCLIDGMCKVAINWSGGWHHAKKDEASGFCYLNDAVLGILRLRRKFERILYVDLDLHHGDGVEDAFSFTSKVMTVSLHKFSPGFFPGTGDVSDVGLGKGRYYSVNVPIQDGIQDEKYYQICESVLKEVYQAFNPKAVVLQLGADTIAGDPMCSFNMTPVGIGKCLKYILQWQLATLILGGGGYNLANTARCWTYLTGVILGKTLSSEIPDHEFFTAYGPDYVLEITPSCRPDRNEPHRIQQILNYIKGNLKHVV

Compound	IC50 (Full length Human HDAC6) [nM]	Selectivity (6 v 8) (Full length Human HDAC6)	IC50 (Full length Human HDAC8) [nM]
CC[C@H]1Cc2c(F)cc(C(=O)NO)cc2CN1C[C@@]12C[C@@H](CO1)N(C)C2 (single isomer, unassigned) [Compound 553]	1 to 100	IV (IV: >100-1000)	10000 to 100000
CC[C@@H]1Cc2c(F)cc(C(=O)NO)cc2CN1C[C@]12C[C@H](CO1)N(C)C2 (single isomer, unassigned) [Compound 554]	1 to 100	IV (IV: >100-1000)	1000 to 10000
CC[C@@H]1Cc2c(F)cc(C(=O)NO)cc2CN1C[C@@]12C[C@@H](CO1)N(C)C2 (single isomer, unassigned) [Compound 555]	> 100000	V (V: >1000)	> 100000
CC[C@H]1Cc2c(F)cc(C(=O)NO)cc2CN1CC1CC2CCC(C1)N2C (single isomer, unassigned) [Compound 570]	1 to 100	V (V: >1000)	10000 to 100000
CC[C@@H]1Cc2c(F)cc(C(=O)NO)cc2CN1CC1CC2CCC(C1)N2C (single isomer, unassigned) [Compound 571]	100 to 1000	III (III: >10-100)	1000 to 10000
CC[C@@H]1Cc2c(F)cc(C(=O)NO)cc2CN1C[C@H]1C[C@H]2CC[C@@H](C1)N2C (single isomer, unassigned) [Compound 572]	1 to 100	III (III: >10-100)	1000 to 10000
CC[C@H]1Cc2c(F)cc(C(=O)NO)cc2CN1C[C@@H]1C[C@H]2CC[C@@H](C1)N2C (single isomer, unassigned) [Compound 573]	1 to 100	IV (IV: >100-1000)	1000 to 10000
CC[C@H]1Cc2c(F)cc(C(=O)NO)cc2CN1CC1CC2CCC(C1)N2C1CC1 (single isomer, unassigned) [Compound 576]	1 to 100	IV (IV: >100-1000)	1000 to 10000
CC[C@@H]1Cc2c(F)cc(C(=O)NO)cc2CN1C1CCCC1 (single isomer, unassigned) [Compound 580]	100 to 1000	III (III: >10-100)	10000 to 100000
CC[C@H]1Cc2c(F)cc(C(=O)NO)cc2CN1C1CCCC1 (single isomer, unassigned) [Compound 581]	100 to 1000	III (III: >10-100)	10000 to 100000
CC[C@@H]1Cc2c(F)cc(C(=O)NO)cc2CN1C1CCCCC1 (single isomer, unassigned) [Compound 582]	100 to 1000	III (III: >10-100)	10000 to 100000
CC[C@H]1Cc2c(F)cc(C(=O)NO)cc2CN1C1CCCCC1 (single isomer, unassigned) [Compound 583]	100 to 1000	III (III: >10-100)	10000 to 100000
CC[C@@H]1Cc2c(F)cc(C(=O)NO)cc2CN1C1CC2(C1)CN(C)C2 (single isomer, unassigned) [Compound 584]	100 to 1000	IV (IV: >100-1000)	10000 to 100000
CC[C@H]1Cc2c(F)cc(C(=O)NO)cc2CN1C1CC2(C1)CN(C)C2 (single isomer, unassigned) [Compound 585]	100 to 1000	III (III: >10-100)	1000 to 10000
CC[C@@H]1Cc2c(F)cc(C(=O)NO)cc2CN1C1CC2(CCOCC2)C1 (single isomer, unassigned) [Compound 590]	100 to 1000	III (III: >10-100)	10000 to 100000
CC[C@H]1Cc2c(F)cc(C(=O)NO)cc2CN1C1CC2(CCOCC2)C1 (single isomer, unassigned) [Compound 591]	1 to 100	IV (IV: >100-1000)	10000 to 100000
CC[C@@H]1Cc2c(F)cc(C(=O)NO)cc2CN1C1CC(C)(C)C1 (single isomer, unassigned) [Compound 592]	100 to 1000	IV (IV: >100-1000)	10000 to 100000
CC[C@H]1Cc2c(F)cc(C(=O)NO)cc2CN1C1CC(C)(C)C1 (single isomer, unassigned) [Compound 593]	100 to 1000	IV (IV: >100-1000)	10000 to 100000

Compound	IC50 (Full length Human HDAC6) [nM]	Selectivity (6 v 8) (Full length Human HDAC6)	IC50 (Full length Human HDAC8) [nM]
CC[C@@H]1Cc2c(F)cc(C(=O)NO)cc2CN1C1CC2(CCN(C)CC2)C1 (single isomer, unassigned) [Compound 594]	1 to 100	V (V: >1000)	> 100000
CC[C@H]1Cc2c(F)cc(C(=O)NO)cc2CN1C1CC2(CCN(C)CC2)C1 (single isomer, unassigned) [Compound 595]	100 to 1000	IV (IV: >100-1000)	10000 to 100000
CC[C@@H]1Cc2c(F)cc(C(=O)NO)cc2CN1C1CCC1 (single isomer, unassigned) [Compound 596]	1 to 100	IV (IV: >100-1000)	10000 to 100000
CC[C@H]1Cc2c(F)cc(C(=O)NO)cc2CN1C1CCC1 (single isomer, unassigned) [Compound 597]	100 to 1000	IV (IV: >100-1000)	10000 to 100000
CC[C@@H]1Cc2c(F)cc(C(=O)NO)cc2CN1C1CC2(CCN(C3CC3)CC2)C1 (single isomer, unassigned) [Compound 598]	100 to 1000	IV (IV: >100-1000)	10000 to 100000
CC[C@H]1Cc2c(F)cc(C(=O)NO)cc2CN1C1CC2(CCN(C3CC3)CC2)C1 (single isomer, unassigned) [Compound 599]	100 to 1000	IV (IV: >100-1000)	10000 to 100000
CC[C@@H]1Cc2c(F)cc(C(=O)NO)cc2CN1C1COC1 (single isomer, unassigned) [Compound 600]	1 to 100	IV (IV: >100-1000)	1000 to 10000
CC[C@H]1Cc2c(F)cc(C(=O)NO)cc2CN1C1COC1 (single isomer, unassigned) [Compound 601]	1 to 100	IV (IV: >100-1000)	10000 to 100000
CC[C@@H]1Cc2c(F)cc(C(=O)NO)cc2CN1C1CC2(CCN(C(C)=O)CC2)C1 (single isomer, unassigned) [Compound 602]	100 to 1000	III (III: >10-100)	10000 to 100000
CC[C@H]1Cc2c(F)cc(C(=O)NO)cc2CN1C1CC2(CCN(C(C)=O)CC2)C1 (single isomer, unassigned) [Compound 603]	100 to 1000	IV (IV: >100-1000)	10000 to 100000
CC[C@H](c1ccccc1)N1CCc2cc(C(=O)NO)cc(F)c2C1 [Compound 30]	1 to 100	–	1000 to 10000
CC[C@@H](c1ccccc1)N1CCc2cc(C(=O)NO)cc(F)c2C1 [Compound 31]	1 to 100	–	1000 to 10000
CC[C@@H]1CCCN1Cc1ccc(C(=O)NO)cc1F [Compound 48]	1 to 100	–	1000 to 10000
CC[C@H]1CCCN1Cc1ccc(C(=O)NO)cc1F [Compound 49]	100 to 1000	–	1000 to 10000
O=C(NO)c1cc(F)c(CN2C3CCC2CC(=NO)C3)cc1F [Compound 54]	1 to 100	III (III: >10-100)	100 to 1000
O=C(NO)c1cc(F)c2c(c1)CCN1CCC[C@@H]21 [Compound 79]	1 to 100	IV (IV: >100-1000)	1000 to 10000
O=C(NO)c1cc(F)c2c(c1)CCN1CCC[C@H]21 [Compound 80]	100 to 1000	III (III: >10-100)	1000 to 10000
